From US9579317B2, “Peptide-drug conjugates” (JiaRui Biopharmaceuticals, Ltd., priority 2014, dated 2017)

Assays:
[1] = tested on: CT-26 syngenic colon cancer model; assay: In vivo antitumor activity, subcutaneous CT-26 syngenic colon cancer model; parameters: species or system Balb/c mice; conditions: QW, intravenous, three injections
Method: The tumoricidal effect of peptide-drug conjugate N^α-succinamic acid-Ala-Ala-Asn-PABC-mitomycin [8] was evaluated on subcutaneous CT-26 syngenic colon cancer model in Balb/c mice. Each mouse was inoculated subcutaneously at the right flank region with CT-26 tumor cells (5×10^5) in 0.1 mL of PBS.

Balb/c mice = assay: In vivo maximum tolerated dose (MTD) in Balb/c mice; parameters: mortality: dose or concentration left out as unconfirmed
HCT116 = assay: cells; type: cell-based, human; conditions: 72 hours, n = 3, mean
Method: (§1) Monolayer cultures of human carcinoma cells were harvested using trypsin-EDTA, and the cells counted and resuspended to 1×10^5/mL in RPMI-1640 or DMEM containing 10% FBS. Cells (0.1 mL/well) were added to each well of 96 well microtiter plates and incubated overnight at 37° C. in a humidified atmosphere of 5% CO2. […] All dilutions were performed in triplicate. The drug treated cells were incubated for another 72 hours at 37° C. in a humidified atmosphere of 5% CO2. 50 μL of cold TCA (50%, wt/vol) was added to each well and incubated the plates at 4° C. for 1 hour. The plates were washed with slow-running tap water for three times and the dried at room temperature. 50 μL of Sulforhodamine B solution (0.4%, wt/vol) was added to each well and the plates were left at room temperature for 1 hour. The plates were rinsed with acetic acid solution (1%, vol/vol) to remove the unbound dye and dried at room temperature. 200 μL of 10 mM Tris base solution was added to each well and the plates were shaken on a gyratory shaker for 15 minutes to solubilize the protein-bound dye. Well optical density at 510 nm was measured in a microplate reader, and the IC50 was calculated by GraphPad from three separated experiments with triplicate in each experiment and expressed as mean (Table 1).

HepG2 = assay: cells; type: cell-based, human; conditions: 72 hours, n = 3, mean
Method: as §1

Human plasma stability = assay: Human plasma stability
Method: 100 μL aliquots were removed at the time points of 0, 0.25, 0.5, 1, 2, 4, 6 hours and diluted with 400 μL cold acetonitrile containing tolbutamide (200 ng/mL) as internal standard. The samples were centrifuged at 14,000 rpm for 4 minutes. 100 μL of above supernatants were diluted with 300 μL of 0.1% formic acid HPLC water and 10 μL was taken for LC/MS/MS analysis (column: C-18; mobile phase: 0.1% formic acid in water/0.1% formic acid in acetonitrile; ion transition: Q1 ion (m/z)=840.5, Q2 ion (m/z)=462.2).

[2] = 25, 50 and 100 mg/kg, once per week, three injections total for 24 days

CO[C@@]12[C@H](COC(N)=O)C3=C(C(=O)C(C)=C(N)C3=O)N1C[C@@H]1N[C@@H]12 [mitomycin, reference compound]
tumor growth T/C ([1]; 5 mg/kg (MTD dose)): 50.4% | mortality (Balb/c mice): animal death was observed | IC50 (HCT116; Homo sapiens, HCT-116): 116 nM | IC50 (HepG2; Homo sapiens, HepG2): 143 nM

CO[C@@]12[C@H](COC(N)=O)C3=C(C(=O)C(C)=C(N)C3=O)N1C[C@H]1[C@@H]2N1C(=O)OCc1ccc(NC(=O)[C@H](CC(N)=O)NC(=O)[C@H](C)NC(=O)[C@H](C)NC(=O)CCC(=O)O)cc1 [compound 8, N^α-succinamic acid-Ala-Ala-Asn-PABC-mitomycin]
tumor growth T/C versus untreated control ([1]; 50 mg/kg, p<0.01): 36.4% | appearance (Balb/c mice; [2]): no abnormal appearance | body weight (loss) (Balb/c mice; [2]): < 10% | increase of mice maximum tolerated dose (MTD) as compared with parent drug mitomycin (Balb/c mice; Balb/c mice): at least 20 fold | IC50 (HCT116): 6650 nM | IC50 (HepG2): 2480 nM | free drug mitomycin detected (Human plasma stability; human plasma incubation, 10 μM, 37° C.): Less than 2% | half-life at 10 μM (Human plasma stability; human, plasma): > 15 h
